# According to US3941777A, “Compounds having juvenile hormone activity” (A/S Cheminova, priority 1973, dated 1976):
# Key:
# Tenebrio molitor L. = test: Tenebrio test: topical application to pupae, inhibition of adult characters; format: in vivo; conditions: topical in acetone to abdomen of 0.5 to 2 hours old pupae; 27°C, 70% RH; ecdysis 5 to 7 days later; perfect adult 0%, perfect second pupa 100%
# Protocol: The biological tests are examplified by tests on Tenebrio molitor L., Galleria mellonella L. and Culex pipiens L. Tenebrio test: The material in question is applied topically to the abdomen of 0.5 to 2 hours old pupae of the said specimen, as a solution in acetone. The pupae are held at 27°C and 70% RH, ecdysis occuring 5 to 7 days later. The degree of inhibition of adult characters is refered to an arbitrary scale, a morphologically perfect adult given the character 0%, a perfect second pupa 100%.
# Culex pipiens L. = test: Culex test: mature larvae, loss of 50% of the test animals; format: in vivo; conditions: concentration producing a loss of 50% of the test animals, read-out: Culex test IC-50 eclos.
# Protocol: Culex test: The compounds were tested on mature larvae of Culex pipiens. (IC-50 eclos.) in ppm.
SMILES,Tenebrio test ID-50 morph. (Tenebrio molitor L.),LC50 (Culex pipiens L.) [µg/mL]
"CC(C)=CCCC(C)=CCON=Cc1ccccc1 [Compound 1, Benzaldoxime-0-geranyl ether]","0,05 μg/pupa",< 1
"CC(=CCON=Cc1ccccc1)CCC1OC1(C)C (stereo not drawn) [Compound 2, Benzaldoxime-O-epoxygeranyl ether]","> 0,1 μg/pupa",–
"CCC(C)=CCCC(=CCON=Cc1ccccc1)CC [Compound 4, Benzaldoxime-O-(3-ethyl-7-methyl-2,6-nonadiene-1-yl)-ether]","0,01 μg/pupa",–
"CC(C)=CCCC(C)=CCON=Cc1ccc2c(c1)OCO2 [Compound 5, Piperonaloxime-O-geranyl ether]",> 100 μg/pupa,1
"CC(C)=CCCC(C)=CCON=Cc1ccc(C)cc1 [Compound 6, p-Tolualdoxime-O-geranyl ether]",50 μg/pupa,10
"CC(C)=CCCC(C)=CCON=Cc1cccnc1 [Compound 7, 3-Pyridinealdoxime-O-geranyl ether]",10 μg/pupa,–
"CC(C)=CCCC(C)CCON=Cc1ccccc1 (stereo not drawn) [Compound 8, Benzaldoxime-O-citronellyl ether]",> 100 μg/pupa,< 10
"CCC(C)=CCON=Cc1ccc2c(c1)OCO2 [Compound 9, Piperonaloxime-O-(3-methyl-2-pentene-1-yl)-ether]",10 μg/pupa,0.02
"CCC(C)=CCON=Cc1ccccc1 [Compound 10, Benzaldoxime-O-(3-methyl-2-pentene-1-yl)-ether]",> 100 μg/pupa,1
"CCC(C)=CCCON=Cc1ccc2c(c1)OCO2 [Compound 11, Piperonaloxime-O-(4-methyl-3-hexene-1-yl)-ether]",> 100 μg/pupa,0.5
"CCC(C)=CCCON=Cc1ccccc1 [Compound 12, Benzaldoxime-O-(4-methyl-3-hexene-1-yl)-ether]",> 100 μg/pupa,< 10
"CC(C)=CCCC(C)=CCON=CCO [Compound 13, Glycollicaldoxime-O-geranyl ether]",50 μg/pupa,10
"CCOC(=O)C=NOCC=C(C)CCC=C(C)C [Compound 14, Glyoxylic acid ethylester aldoxime-O-geranyl ether]",1 μg/pupa,1
"CCOC(=O)C=NOCC=C(C)CCC1OC1(C)C (stereo not drawn) [Compound 15, Glyoxylic acid ethylester aldoxime-O-(epoxygeranyl)-ether]",1 μg/pupa,1
"CCOC(=O)C=NOCC=C(C)CCCC(C)(C)OCC [Compound 16, Glyoxylic acid ethylester aldoxime-O-(7-ethoxy-geranyl)-ether]",1 μg/pupa,1
